Biological target: 5-HT1A receptor (Bos taurus)
Experiment: In vitro inhibition of [3H]5-HT (2 nM) binding to 5-hydroxytryptamine 1A receptor from bovine hippocampus

[N-]=[N+]=Nc1ccc(CCN2CCN(c3cccc(C(F)(F)F)c3)CC2)cc1I
IC50: 35 nM

Source: BindingDB's records for doi:10.1021/jm00123a006 (University of Pennsylvania, 1989)
